Measured values reported in patent US5981558A, “DC107 derivatives” (Kyowa Hakko Kogyo Co., Ltd., priority 1996, dated 1999).
In brackets after ≈: the same amount, converted by molar mass. Like-named read-outs stand apart in the source and are kept apart here.

Key:
HeLa S3 cells = assay: HeLa S3 Cell Growth Inhibition Test; type: cell-based; conditions: Homo sapiens, HeLa S3, 72 h, 72 hours incubation, Neutral Red
In short: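 HeLa S3 cells seeded overnight in MEM with 10% FBS, then exposed to compound for 72 h at 37 °C. Viable cells stained with Neutral Red, dye extracted, absorbance read at 550 nm; IC50 derived against untreated cells.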

[1] = test system: SA: Staphylococcus aureus ATCC 6538P; assay: Antimicrobial activity by the agar dilution method (MIC); type: cell-based; conditions: ATCC6538P
Description: (§1) Antimicrobial activity was determined by the agar dilution method using a culture medium (pH 7) prepared by dissolving 3 g of Bacto-Tryptone (manufactured by Difco, Co.), 3 g of meat extract, 1 g of yeast extract, 1 g of glucose, and 16 g of agar in 1 l of water.

[2] = test system: BS: Bacillus substilis No. 10707; assay: as above; type: cell-based
Description: as §1

[3] = test system: EC: Escherichia coli ATCC 26; assay: as above; type: cell-based
Description: as §1

[4] = test system: KP: Klebisiella pneumoniae ATCC 10031; assay: as above; type: cell-based
Description: as §1

[5] = test system: EH: Enterococcus hirae ATCC 10541; assay: as above; type: cell-based; conditions: pH 7
Description: as §1

[6] = test system: Sarcoma 180 mouse solid tumor; assay: Antitumor activity against Sarcoma 180 mouse solid tumor; type: in vivo, mouse (ddY); conditions: Sarcoma-180, iv, 168 h
Description: To a ddY mouse were intraperitoneally transplanted 5×10^6 sarcoma 180 cells. On the seventh day from the transplant, the cells were collected from the ascites, washed once with sterilized physiological saline, and then diluted with sterilized physiological saline to prepare a cell suspension having a concentration of 5×10^7 cells/mL. This suspension was transplanted in an amount of 0.01 mL to a subcutaneous part of the right axilla of each of male ddY mice each weighing 20±1 g.
A test compound was dissolved in physiological saline containing polyoxyethylene sorbitan monolaurate. At 24 hours after the tumor transplant, 0.2 mL of the solution was intravenously administered to the tail of each of a group of five mice.

tumor = conditions: Japanese Published Unexamined Patent Application No. 112988/89; cited from earlier work
various bacteria = conditions: Japanese Published Unexamined Patent Application No. 112988/89; cited from earlier work
[7] = read-out: IC50, HeLa S3 cell growth inhibition, HeLa S3
[8] = Staphylococcus aureus, pH 7, read-out: minimum inhibitory concentration (MIC), SA
[9] = Bacillus, pH 7, read-out: minimum inhibitory concentration (MIC), BS
[10] = Escherichia coli, ATCC26, pH 7, read-out: minimum inhibitory concentration (MIC), EC
[11] = pH 7, read-out: minimum inhibitory concentration (MIC), KP
[12] = HeLa S3, read-out: IC50, HeLa S3 cell growth inhibition
[13] = Staphylococcus aureus ATCC 6538P, agar dilution, pH 7, read-out: minimum inhibitory concentration (MIC), SA
[14] = Bacillus substilis No. 10707, agar dilution, pH 7, read-out: minimum inhibitory concentration (MIC), BS
[15] = ATCC26, Escherichia coli ATCC 26, agar dilution, pH 7, read-out: minimum inhibitory concentration (MIC), EC
[16] = Klebisiella pneumoniae ATCC 10031, agar dilution, pH 7, read-out: minimum inhibitory concentration (MIC), KP

Row | SMILES | IC50 (HeLa S3 cells; [7]) | MIC [1, 8] | MIC [2, 9] | MIC [3, 10] | MIC [4, 11] | minimum inhibitory concentration (MIC), EH [5] | IC50 (HeLa S3 cells; [12]) | MIC [1, 13] | MIC [2, 14] | MIC [3, 15] | MIC [4, 16] | further results
1 | C/C1=C\C(OC2CCCCO2)C(=O)/C=C/C=C\c2csc(n2)C(C)N2C(=O)CC(C(C)(O)C(=O)SCc3oc(=O)oc3COC3C[C@@H](O)[C@H](O)[C@@H](CO)O3)(CC1)[S+]2[O-] (some centres unmarked) [Compound 83] | 11 nM | 0.32 µg/mL (≈ 0.368 µM) | 0.037 µg/mL (≈ 0.0426 µM) | 4.7 µg/mL (≈ 5.41 µM) | 4.7 µg/mL (≈ 5.41 µM) | 0.59 µg/mL (≈ 0.679 µM) | – | – | – | – | – | –
2 | COCCOCC(=O)OCc1oc(=O)oc1CSC(=O)C(C)(O)C12CC/C(C)=C/C(OC3CCCCO3)C(=O)/C=C/C=C\c3csc(n3)C(C)N(C(=O)C1)[S+]2[O-] (centres unmarked) [Compound 100] | – | – | – | – | – | 0.33 µg/mL (≈ 0.393 µM) | 18 nM | 0.081 µg/mL (≈ 0.0965 µM) | 0.041 µg/mL (≈ 0.0489 µM) | 2.6 µg/mL (≈ 3.1 µM) | 0.65 µg/mL (≈ 0.775 µM) | response vs control in vivo at 16 mg/kg ([6]; 16 mg/kg i.v. once, 24 hours after transplant, tumor volume on day 7, read-out: T/C (tumor volume ratio treated/control)): 30%
3 | COC(=O)NCC(=O)OCSC(=O)C(C)(O)C12CCC(C)=CC(O)C(=O)C=CC=Cc3csc(n3)C(C)N(C(=O)C1)[S+]2[O-] (centres unmarked) [Compound 17] | – | – | – | – | – | 1.3 µg/mL (≈ 1.98 µM) | 15 nM | 0.65 µg/mL (≈ 0.991 µM) | 0.65 µg/mL (≈ 0.991 µM) | 42 µg/mL (≈ 64 µM) | 0.65 µg/mL (≈ 0.991 µM) | –
4 | C/C1=C\C(O)C(=O)/C=C/C=C\c2csc(n2)C(C)N2C(=O)CC(C(C)(O)C(=O)SCc3oc(=O)oc3CO)(CC1)[S+]2[O-] (centres unmarked) [Compound 86] | 610 nM | 0.33 µg/mL (≈ 0.517 µM) | 0.16 µg/mL (≈ 0.25 µM) | 10 µg/mL (≈ 15.7 µM) | 0.16 µg/mL (≈ 0.25 µM) | 0.16 µg/mL (≈ 0.25 µM) | – | – | – | – | – | –
5 | COCOCc1oc(=O)oc1CSC(=O)C(C)(O)C12CC/C(C)=C/C(O)C(=O)/C=C/C=C\c3csc(n3)C(C)N(C(=O)C1)[S+]2[O-] (centres unmarked) [Compound 77] | – | – | – | – | – | 0.18 µg/mL (≈ 0.264 µM) | 7.7 nM | 0.36 µg/mL (≈ 0.527 µM) | 0.36 µg/mL (≈ 0.527 µM) | 11 µg/mL (≈ 16.1 µM) | 0.36 µg/mL (≈ 0.527 µM) | response vs control in vivo at 8 mg/kg ([6]; 8.0 mg/kg i.v. once, 24 hours after transplant, tumor volume on day 7, read-out: T/C (tumor volume ratio treated/control)): 36%
6 | COC(=O)[C@H](CCC(=O)OCSC(=O)C(C)(O)C12CC/C(C)=C/C(O)C(=O)/C=C/C=C\c3csc(n3)C(C)N(C(=O)C1)[S+]2[O-])NC(=O)C1CCC(=O)N1 (some centres unmarked) [Compound 143] | – | 0.29 µg/mL (≈ 0.365 µM) | 0.29 µg/mL (≈ 0.365 µM) | 19 µg/mL (≈ 23.9 µM) | 0.59 µg/mL (≈ 0.742 µM) | 0.29 µg/mL (≈ 0.365 µM) | – | – | – | – | – | response vs control in vivo at 8 mg/kg ([6]; read-out: T/C (tumor volume ratio treated/control)): 27%
7 | COCCOCCOCC(=O)OCSC(=O)C(C)(O)C12CCC(C)=CC(O)C(=O)C=CC=Cc3csc(n3)C(C)N(C(=O)C1)[S+]2[O-] (centres unmarked) [Compound 35] | – | – | – | – | – | 0.39 µg/mL (≈ 0.556 µM) | 22 nM | 0.39 µg/mL (≈ 0.556 µM) | 0.39 µg/mL (≈ 0.556 µM) | 13 µg/mL (≈ 18.5 µM) | 0.39 µg/mL (≈ 0.556 µM) | response vs control in vivo at 2 mg/kg ([6]; 2.0 mg/kg i.v. once, 24 hours after transplant, tumor volume on day 7, read-out: T/C (tumor volume ratio treated/control)): 44%
8 | CC1=CC(O)C(=O)C=CC=Cc2csc(n2)C(C)NC(=O)CC2(CC1)[S+]([O-])SC(=O)C2(C)O (centres unmarked) [DC107] | – | – | – | – | – | – | – | – | – | – | – | antitumor activity (tumor): antitumor activity; antimicrobial activity (various bacteria): antimicrobial activity against various bacteria
9 | C/C1=C\C(O)C(=O)/C=C/C=C\c2csc(n2)C(C)N2C(=O)CC(C(C)(O)C(=O)SCOC(=O)CCc3ccc(O)cc3)(CC1)[S+]2[O-] (centres unmarked) [Compound 70] | 2.6 nM | 0.91 µg/mL (≈ 1.32 µM) | 0.057 µg/mL (≈ 0.0827 µM) | 29 µg/mL (≈ 42.1 µM) | 0.91 µg/mL (≈ 1.32 µM) | 0.91 µg/mL (≈ 1.32 µM) | – | – | – | – | – | –
